Where two headings read alike, the source gives them in different places.
Legend:
hIntL-1 [1] = target: T1, hIntL-1 (Homo sapiens, UniProt Q8WWA0); assay: hIntL-1 on CFG mammalian glycan array v5.1; assay type: binding; design: made in house; host or cells: HEK 293T (transient transfection, suspension); settings: hIntL-1 50 and 200 μg/ml
hIntL-1 [2] = target: T1, hIntL-1; settings: reported by Tsuji et al., 2001; read-out: apparent KD / apparent affinity for hIntL-1; cited from earlier work
[3] = system: UDP-galactopyranose mutase (UGM); settings: UGM from the species listed; cited from earlier work
hIntL-1 [4] = target: T1, hIntL-1; assay: hIntL-1 surface plasmon resonance on immobilized carbohydrates; assay type: binding; design: made in house; host or cells: HEK 293T (transient transfection, suspension); settings: concentrations up to 6-fold higher than the β-Galf KD
Method: hIntL-1 Surface Plasmon Resonance (SPR). All hIntL-1 SPR was performed on a ProteOn XPR36 (Bio-Rad) at the University of Wisconsin-Madison Department of Biochemistry Biophysics Instrumentation Facility (BIF). To measure hIntL-1 binding, ProteOn NLC sensor chips (Bio-Rad) (NeutrAvidin coated chips) were used to capture carbohydrate-biotin ligand. All experiments presented here were conducted at surface saturated levels of ligand, ˜200 RU. In all experiments, captured biotin served as a control. Samples containing purified hIntL-1 were prepared by serial dilution into hIntL-1 SPR running buffer (20 mM HEPES (7.4) 150 mM NaCl, 1 mM CaCl2, and 0.005% tween-20). Surfaces were regenerated with short injections of 10 mM HCl. All data was interspot corrected and processed using the Bio-Rad ProteOn software package.

hIntL-1 [5] = target: T1, hIntL-1; assay: hIntL-1 carbohydrate binding ELISA-like assay (immobilized biotinylated carbohydrates); design: made in house; host or cells: HEK 293T (transient transfection, suspension); settings: for hIntL-1 binding to immobilized carbohydrate in ELISA: immobilized carbohydrate-biotin ligand
Method: hIntL-1 Carbohydrate Binding ELISA-like Assay. To fabricate carbohydrate-displaying surfaces, 0.5 μg of streptavidin (Prozyme, cat. no. SA20) was adsorbed onto a Maxisorp (Nunc) flat bottom 96 well plate in PBS. Wells were washed with PBS and then coated with 5 μM of carbohydrate-biotin ligand in PBS for 1 hour at 22° C. Wells were blocked with bovine serum albumin (BSA) in ELISA buffer (20 mM HEPES (7.4) 150 mM NaCl, 10 mM CaCl2, and 0.1% tween-20). Samples containing hIntL-1 were prepared by serial dilution into ELISA buffer+0.1% BSA and added to wells for 2 hours at 22° C. Wells were washed four times with ELISA buffer. Bound hIntL-1 was detected using 0.75 μg/mL of a sheep IgG hIntL-1 antibody (R&D Systems, cat. no. AF4254) in ELISA buffer+0.1% BSA for 2 hours at 22° C. Wells were washed with ELISA buffer. A donkey anti-sheep IgG horseradish peroxidase (HRP) conjugate (Jackson ImmunoResearch Laboratories) was added at a 1:5,000 dilution in ELISA buffer+0.1% BSA for 1 hour at 22° C. Wells were washed and hIntL-1 was detected colorimetrically with addition of 1-Step Ultra TMB-ELISA (Pierce). Once sufficient signal was achieved (typically <2 min.), the reaction was quenched with addition of equal volume 2 M H2SO4. Plates were read at 450 nm on an EL×800 plate reader (Bio-Tek). […] Data were analyzed on Prism6 (GraphPad). Data were fit to the one site-specific binding equation.

Strep-hIntL-1 = target: T2, Strep-hIntL-1 (Homo sapiens, UniProt Q8WWA0); assay: Strep-hIntL-1 binding to S. pneumoniae serotypes; settings: detected with anti-Strep-tag:Oyster 642 nm antibody
T2 construct: made in house; host or cells: HEK 293T (transient transfection)

Strep-mIntL-1 = Strep-mIntL-1 (Mus musculus, UniProt O88310); settings: SPR, referenced to biotin channel
Sequence of Strep-mIntL-1 (O88310 19-298): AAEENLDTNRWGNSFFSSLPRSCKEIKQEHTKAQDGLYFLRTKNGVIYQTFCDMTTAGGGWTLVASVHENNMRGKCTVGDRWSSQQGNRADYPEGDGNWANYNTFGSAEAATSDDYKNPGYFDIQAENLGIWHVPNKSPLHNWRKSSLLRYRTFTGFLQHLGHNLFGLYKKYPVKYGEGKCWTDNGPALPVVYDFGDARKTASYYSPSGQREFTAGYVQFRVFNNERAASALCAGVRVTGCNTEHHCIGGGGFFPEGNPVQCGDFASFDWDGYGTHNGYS

T1 sequence (Q8WWA0 19-313): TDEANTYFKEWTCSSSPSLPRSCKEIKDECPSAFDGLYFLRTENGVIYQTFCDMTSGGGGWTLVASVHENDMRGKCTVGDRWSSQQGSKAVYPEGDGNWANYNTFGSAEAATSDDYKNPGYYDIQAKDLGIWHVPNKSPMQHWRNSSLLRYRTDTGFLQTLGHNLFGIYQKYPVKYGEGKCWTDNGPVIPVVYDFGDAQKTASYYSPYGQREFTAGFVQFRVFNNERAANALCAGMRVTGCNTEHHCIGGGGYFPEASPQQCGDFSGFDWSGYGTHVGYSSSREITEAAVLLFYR
T2 sequence (Q8WWA0 19-313): as above

CC(=O)N[C@H]1[C@H](OC[C@H]2OC(O)[C@H](NC(C)=O)[C@@H](O)[C@H]2O)O[C@H](CO)[C@H](O)[C@@H]1O (stereo partly drawn) [GalNAcβ1-6GalNAc]
hIntL-1 binding signal on CFG mammalian glycan array (hIntL-1 [1]): highest signal

O=C[C@H](O)[C@H](O)[C@H](O)CO [D-ribose]
Kd (hIntL-1 [2]): < 5 mM

Cc1c(C(=O)c2ccc(Cl)cc2)c(O)nn1-c1ccc(Cl)cc1 [4-chlorophenyl)-[1-(4-chlorophenyl)-3-hydroxy-5-methyl-1H-pyrazol-4-yl]-methanone]
inhibition of UGM [3]: inhibits UGM

O=C(CCCCC1SCC2NC(=O)NC21)NCCOCCOCCOCCOCc1cn(CCCCCCCCCC=CCOC2OC(C(O)CO)C(O)C2O)nn1 (stereo not drawn)
hIntL-1 binding to immobilized carbohydrate in SPR (hIntL-1 [4]): robust binding
Kd (hIntL-1 [5]; disulfide-linked trimer, immobilized biotinylated carbohydrate, read-out: apparent avidity (apparent Kd) of trimeric hIntL-1 for immobilized ligand): 85 ± 14 nM

CC(=O)N[C@H]1[C@H]([C@H](O)[C@H](O)CO)OC(O)(C(=O)O)C[C@@H]1O (stereo partly drawn) [Neu5Ac, N-acetyl-neuraminic acid]
hIntL-1 binding signal on CFG mammalian glycan array (hIntL-1 [1]): lack of affinity
hIntL-1 binding to immobilized carbohydrate in ELISA (hIntL-1 [5]): lack of affinity
hIntL-1 binding to immobilized carbohydrate in ELISA (hIntL-1 [5]; listed as α-Neu5Ac): does not bind

O=C(O)CN(CCN(CC(=O)O)CC(=O)O)CC(=O)O [EDTA]
effect of additive on hIntL-1 binding to S. pneumoniae (Strep-hIntL-1): abrogate binding
effect of additive on mIntL-1 carbohydrate binding (Strep-mIntL-1): prevents carbohydrate binding
effect of additive on hIntL-1 binding to β-Galf (hIntL-1 [5]; hIntL-1 conditioned HEK culture media, 25 mM EDTA): completely abolished binding

CC(=O)N[C@H]1C(O)O[C@H](CO)[C@@H](O[C@@H]2O[C@@H]([C@H](O)CO)[C@H](O)[C@H]2O)[C@@H]1O (stereo partly drawn) [2-acetamido-2-deoxy-4-O-beta-D-galactofuranosyl-D-glucopyranose]
Kd (hIntL-1 [2]): 9 mM

OCC(O)CO [glycerol]
effect of additive on hIntL-1 binding to S. pneumoniae (Strep-hIntL-1): abrogate binding

OC[C@H]1O[C@@H](O)[C@H](O)[C@@H](O)[C@H]1O [β-Galp, β-galactopyranose]
hIntL-1 binding to immobilized carbohydrate in SPR (hIntL-1 [4]): small response

O=C(O)C(Cc1ccc(I)cc1)Nc1nc(-c2ccc(Cl)c(Cl)c2)cs1 (stereo not drawn) [3-(4-iodophenyl)-2-[4-(3,4-dichlorophenyl)-thiazol-2-ylamino]-propionic acid]
inhibition of UGM [3]: active against UGM
